Source: patent US20240000814A1, “TREATING ALCOHOL USE DISORDER USING PSILOCYBIN” (New York University, priority 2022, published 2024)
Where “and” joins values, the source holds several entries; their conditions need not be identical. Equal values may be shown once.

How the values were obtained:
AUD patients [1] = test: Double-blind randomized trial of psilocybin-assisted treatment of AUD: drinking outcomes by timeline followback; format: in vivo, human; conditions: for % of Heavy drinking days (PHDD), mean: 32-week double-blind follow-up (weeks 5-36) after first dose, oral psilocybin 25 mg/70 kg then 25-40 mg/70 kg or diphenhydramine 50 mg then 50-100 mg at weeks 4 and 8, with psychotherapy; for Abstinence, NNT / Abstinence, OR / No heavy drinking, NNT / No heavy drinking, OR / WHO risk level Decrease 1, NNT / WHO risk level Decrease 1, OR / WHO risk level Decrease 2, NNT / WHO risk level Decrease 2, OR / WHO risk level Decrease 3, NNT / WHO risk level Decrease 3, OR: psilocybin vs diphenhydramine
Description: Design: In this double-blind trial, participants were offered 12 weeks of manualized psychotherapy and were randomly assigned to receive psilocybin vs. diphenhydramine during two day-long medication sessions at week 4 and 8. Outcomes were assessed over the 32-week double-blind period following the first dose of study medication.
Interventions: Study medications were psilocybin 25 mg/70 kg vs. diphenhydramine 50 mg (first session) and psilocybin 25-40 mg/70 kg vs. diphenhydramine 50-100 mg (second session). Psychotherapy included motivational enhancement therapy and cognitive-behavioral therapy.
Qualifying participants were assessed at screening, baseline (week 0), and weeks 4, 5, 8, 9, 12, 24, and 36. They were randomly assigned in a 1:1 ratio to receive either psilocybin or diphenhydramine, administered in two eight-hour sessions at weeks 4 and 8. All participants who completed the double-blind observation period (weeks 5-36) and still met safety criteria were offered an open-label psilocybin session at week 38, including four additional psychotherapy sessions and assessment for an additional 18 weeks. Participants received up to a total of $560 for completing assessments in the course of the trial, but were not reimbursed for attending the therapy and medication sessions.
All participants were offered a total of 12 psychotherapy sessions from a team of two therapists including a licensed psychiatrist: 4 before the first medication session, 4 between the first and second medication sessions, and 4 in the month following the second medication session. The psychotherapy, described in detail in a separate publication,^41 included motivational interviewing and cognitive behavioral therapy for AUD as well as material designed to help the participants to manage and make use of the psychoactive effects of the study medication.
Study medication was taken orally in a single opaque capsule of unvarying appearance and weight. Psilocybin doses were weight-based to control for participant body weight, which ranged from 49.0 to 116.1 (mean=78.3, SD=15.6) kg. Doses for the first session were psilocybin 25 mg/70 kg or diphenhydramine 50 mg. Participants received an increased dose in the second session if there were no dose-limiting adverse events and they agreed to the increase. The increased dose of psilocybin was 30 mg/70 kg if the participant's total score on the Pahnke-Richards Mystical Experience Questionnaire (MEQ)^42 was ≥0.6 in the first session (indicating a robust subjective response to the 25 mg/70 kg dose), or 40 mg/70 kg if the MEQ total score in the first session was <0.6. The increased dose of diphenhydramine was 100 mg, regardless of subjective response.
Study medication was administered at approximately 9 AM, after which participants were required to stay in the session room with the therapists for at least 8 hours (except for bathroom breaks). During the session, participants were encouraged to lie on a couch wearing eyeshades and headphones providing a standardized playlist of music. Medications were available in the session room to treat hypertension, severe anxiety, or psychotic symptoms.
The pre-specified primary drinking outcome was the percentage of heavy drinking days (PH DD) during […], assessed at weeks 8, 12, 24, and 36 using the timeline followback, a reliable and valid calendar-based method which is the gold standard outcome for AUD clinical trials.^43-47 Secondary outcomes included percent drinking days (PDD), average drinks per day (DPD), and dichotomous outcomes: abstinence, lack of heavy drinking days, and reduction in World Health Organization risk level^48 by one, two, or three levels. Hair or fingernail samples were collected at week 24 and assayed for ethylglucuronide (EtG) concentration to confirm self-reported abstinence. The Short Index of Problems (SIP-2R)^49 was used to assess drinking-related problems at baseline and weeks 12, 24, and 36. […]

AUD patients [2] = test: Subjective effects of study medication, Mystical Experience Questionnaire (MEQ); format: in vivo, human
Description: Subjective effects of psilocybin vs. diphenhydramine were assessed using the States of Consciousness Questionnaire,^42 containing the 43-item Mystical Experience Questionnaire (MEQ), completed immediately after each medication session.
MEQ scores for the first and second medication sessions were computed and contrasted by group (psilocybin vs. diphenhydramine) using t-tests for independent samples.

[3] = system: alcohol-dependent participants; conditions: psilocybin 21-28 mg/70 kg, open-label; cited from earlier work
AUD patients [4] = test: Drinking-related problems, Short Index of Problems (SIP-2R); format: in vivo, human; conditions: week 36
Excerpt: The pre-specified primary drinking outcome was the percentage of heavy drinking days (PH DD) during […], assessed at weeks 8, 12, 24, and 36 using the timeline followback, a reliable and valid calendar-based method which is the gold standard outcome for AUD clinical trials.^43-47 Secondary outcomes included percent drinking days (PDD), average drinks per day (DPD), and dichotomous outcomes: abstinence, lack of heavy drinking days, and reduction in World Health Organization risk level^48 by one, two, or three levels. Hair or fingernail samples were collected at week 24 and assayed for ethylglucuronide (EtG) concentration to confirm self-reported abstinence. The Short Index of Problems (SIP-2R)^49 was used to assess drinking-related problems at baseline and weeks 12, 24, and 36.
Treatment contrasts for dichotomous outcomes were obtained using Chi-squared statistics. Effects of treatment on problems related to drinking were compared using univariate mixed models for repeated measures (MMRM) and generalized linear models. Hedges'g was computed as a measure of effect size for between- and within-group differences on continuous outcomes, and odds ratios were computed for dichotomous outcomes. No correction was made for multiple comparisons, so analyses of secondary outcomes should be considered exploratory.

AUD patients [5] = test: Safety: blood pressure, heart rate and adverse events in the trial; format: in vivo, human
Description: Blood pressure and heart rate were assessed at 30- to 60-minute intervals during the first 6 hours of each medication session. Adverse events were solicited at each post-screening assessment.
Blood pressure and heart rate treatment contrasts were based on MMRM with fixed, categorical effects of treatment and assessment, a treatment-by-assessment interaction, and a fixed covariate (value of each outcome prior to drug administration). All adverse events occurring after informed consent were MedDRA-coded and tabulated, and prevalence within treatment groups (proportion of participants affected) was compared using Fisher's exact tests.

[6] = system: alcohol-dependent participants; conditions: meta-analysis, 95% confidence interval 1.36-2.84; cited from earlier work
[7] = 32-week double-blind follow-up (weeks 5-36)
[8] = 32 weeks following the first administration of study medication
[9] = treatment-emergent, within 48 hours of study drug administration

CN(C)CCc1c[nH]c2cccc(OP(=O)(O)O)c12 [Psilocybin, [3-[2-(dirnethylamino)ethyl]-1H-indo1-4-yl] dihydrogen phosphate]
% of Drinking days, between-group Hedges g (AUD patients [1]; 32-week double-blind follow-up): 0.4 | % of Drinking days, between-group mean difference (diphenhydramine-psilocybin) (AUD patients [1]; 32-week double-blind follow-up): 13.44% | Drinks per day, between-group Hedges g (AUD patients [1]; 32-week double-blind follow-up): 0.54 | Drinks per day, between-group mean difference (diphenhydramine-psilocybin) (AUD patients [1]; 32-week double-blind follow-up): 1.09 Drinks per day | % of Drinking days (PDD), mean (AUD patients [1]; [7]): 29.39% | % of Heavy drinking days, between-group mean difference (diphenhydramine-psilocybin) (AUD patients [1]; [7]): 13.86% | Drinks per day (DPD), mean (AUD patients [1]; [7]): 1.17 Drinks per day | % of Heavy drinking days (PHDD), mean (AUD patients [1]): 9.71% | % of Heavy drinking days (PHDD), mean (AUD patients [1]; listed as psilocybin): 9.7% | % of Heavy drinking days, between-group mean difference (diphenhydramine-psilocybin) (AUD patients [1]; 32-week double-blind follow-up (weeks 5-36), listed as psilocybin): 13.86% and 13.9% | % of Heavy drinking days, between-group Hedges g (AUD patients [1]; 32-week double-blind follow-up, positive = lower mean in psilocybin group): 0.52 | PHDD of psilocybin-treated participants as percent of that in the diphenhydramine-treated group (AUD patients [1]; 32 weeks of double-blind observation): 41% | Abstinence, % of participants (AUD patients [1]; Weeks 5-36): 22.9% | Abstinence, No. of participants (AUD patients [1]; Weeks 5-36): 11 | No heavy drinking, % of participants (AUD patients [1]; Weeks 5-36): 33.3% | No heavy drinking, No. of participants (AUD patients [1]; Weeks 5-36): 16 | WHO risk level Decrease 1, % of participants (AUD patients [1]; Weeks 5-36): 83.3% | WHO risk level Decrease 2, % of participants (AUD patients [1]; Weeks 5-36): 60.4% | WHO risk level Decrease 2, No. of participants (AUD patients [1]; Weeks 5-36): 29 | WHO risk level Decrease 3, % of participants (AUD patients [1]; Weeks 5-36): 29.2% | WHO risk level Decrease 3, No. of participants (AUD patients [1]; Weeks 5-36): 14 | Abstinence, NNT (AUD patients [1]; Weeks 5-36): 7.1 | Abstinence, OR (AUD patients [1]; Weeks 5-36): 3.05 | No heavy drinking, NNT (AUD patients [1]; Weeks 5-36): 4.5 | No heavy drinking, OR (AUD patients [1]; Weeks 5-36): 4 | WHO risk level Decrease 1, NNT (AUD patients [1]; Weeks 5-36): 8.2 | WHO risk level Decrease 1, OR (AUD patients [1]; Weeks 5-36): 2.03 | WHO risk level Decrease 2, NNT (AUD patients [1]; Weeks 5-36): 4.9 | WHO risk level Decrease 2, OR (AUD patients [1]; Weeks 5-36): 2.29 | WHO risk level Decrease 3, NNT (AUD patients [1]; Weeks 5-36): 6.3 | WHO risk level Decrease 3, OR (AUD patients [1]; Weeks 5-36): 2.68 | WHO risk level Decrease 1, No. of participants (AUD patients [1]; Weeks 5-36, relative to 12 weeks prior to screening): 40 | Abstinence, % of participants (AUD patients [1]; Weeks 33-36): 47.9% | Abstinence, No. of participants (AUD patients [1]; Weeks 33-36): 23 | No heavy drinking, % of participants (AUD patients [1]; Weeks 33-36): 62.5% | No heavy drinking, No. of participants (AUD patients [1]; Weeks 33-36): 30 | WHO risk level Decrease 1, % of participants (AUD patients [1]; Weeks 33-36): 89.6% | WHO risk level Decrease 1, No. of participants (AUD patients [1]; Weeks 33-36): 43 | WHO risk level Decrease 2, % of participants (AUD patients [1]; Weeks 33-36): 60.4% | WHO risk level Decrease 2, No. of participants (AUD patients [1]; Weeks 33-36): 29 | WHO risk level Decrease 3, % of participants (AUD patients [1]; Weeks 33-36): 37.5% | WHO risk level Decrease 3, No. of participants (AUD patients [1]; Weeks 33-36): 18 | Abstinence, NNT (AUD patients [1]; Weeks 33-36): 4.3 | Abstinence, OR (AUD patients [1]; Weeks 33-36): 2.84 | No heavy drinking, NNT (AUD patients [1]; Weeks 33-36): 4.4 | No heavy drinking, OR (AUD patients [1]; Weeks 33-36): 2.5 | WHO risk level Decrease 1, NNT (AUD patients [1]; Weeks 33-36): 4 | WHO risk level Decrease 1, OR (AUD patients [1]; Weeks 33-36): 4.74 | WHO risk level Decrease 2, NNT (AUD patients [1]; Weeks 33-36): 4.9 | WHO risk level Decrease 2, OR (AUD patients [1]; Weeks 33-36): 2.29 | WHO risk level Decrease 3, NNT (AUD patients [1]; Weeks 33-36): 5.1 | WHO risk level Decrease 3, OR (AUD patients [1]; Weeks 33-36): 2.78 | Mean MEQ score (AUD patients [2]; Session 1, psilocybin 25 mg/70 kg or diphenhydramine 50 mg): 0.59 (SD=0.24) | Mean MEQ score (AUD patients [2]; Session 2, psilocybin 25-40 mg/70 kg or diphenhydramine 50-100 mg): 0.64 (SD=0.21) | Tolerability [3]: well tolerated | Total Problems score, between-group Hedges' g (AUD patients [4]): 0.67 | Total Problems score, between-group mean difference (AUD patients [4]): 6.41 | Adverse events reported, number (AUD patients [5]; [8]): 119 | Serious adverse events (AUD patients [5]; [8]): no serious adverse events | Time by which blood pressure was no longer significantly elevated (AUD patients [5]; after drug administration): ≤ 360 min | Time until which heart rate was higher (AUD patients [5]; after drug administration): approximately 300 minutes | Anxiety and nausea during administration sessions (AUD patients [5]; compared with diphenhydramine): reported more frequently | Heart rate relative to diphenhydramine group (AUD patients [5]; during medication sessions): higher | Systolic and diastolic blood pressure relative to diphenhydramine (AUD patients [5]; during medication sessions): increased | Participants reporting passive suicidal ideation during a medication session (AUD patients [5]; for 15 minutes, resolved without sequelae): One | Persistent disturbances suggestive of psychosis or hallucinogen persisting perception disorder (AUD patients [5]; in vivo): no persistent disturbances | Severity of adverse events associated with administration (AUD patients [5]; in vivo): mostly mild and self-limiting | Participants given diazepam 10 mg by mouth for anxiety (AUD patients [5]; second medication session): Two | Headaches, participants affected / treated (AUD patients [5]; [9]): 21/48 | Headaches, percent of participants (AUD patients [5]; [9]): 43.8%

CCN(CC)C(=O)[C@@H]1C=C2c3cccc4[nH]cc(c34)C[C@H]2N(C)C1 [lysergic acid diethylamide (LSD), lysergic acid diethylamide]
Odds ratio of remission during follow-up vs comparator conditions [6]: 1.96
